# Source: ChEMBL document CHEMBL5620377, “Research progress of VEGFR small molecule inhibitors in ocular neovascular diseases” (Eur J Med Chem, 2023)
# pIC50: −log10 of the molar value.
# How the values were obtained:
# [1] = target: T1, Vascular endothelial growth factor receptor 2 (Homo sapiens, UniProt P35968); assay: Inhibition of VEGFR-2 (unknown origin)
# [2] = target: T1, Vascular endothelial growth factor receptor 2; assay: Inhibition of recombinant human VEGFR2 using Poly (Glu,Tyr) 4:1 as substrate incubated for 1 hr by ELISA
# [3] = target: Platelet-derived growth factor receptor beta (Homo sapiens, UniProt P09619); assay: Inhibition of recombinant human PDGFRbeta using Poly (Glu,Tyr) 4:1 as substrate incubated for 1 hr by ELISA
# [4] = Inhibition of PDGFRbeta (561 to 1106 residues) (unknown origin); set-up: species or system Homo sapiens
# HUVEC = assay: Inhibition of VEGF-induced HUVECs proliferation; assay type: functional, cell-based; conditions: Homo sapiens
# [5] = Half life in human; assay type: ADME
# T1 sequence (P35968 whole entry): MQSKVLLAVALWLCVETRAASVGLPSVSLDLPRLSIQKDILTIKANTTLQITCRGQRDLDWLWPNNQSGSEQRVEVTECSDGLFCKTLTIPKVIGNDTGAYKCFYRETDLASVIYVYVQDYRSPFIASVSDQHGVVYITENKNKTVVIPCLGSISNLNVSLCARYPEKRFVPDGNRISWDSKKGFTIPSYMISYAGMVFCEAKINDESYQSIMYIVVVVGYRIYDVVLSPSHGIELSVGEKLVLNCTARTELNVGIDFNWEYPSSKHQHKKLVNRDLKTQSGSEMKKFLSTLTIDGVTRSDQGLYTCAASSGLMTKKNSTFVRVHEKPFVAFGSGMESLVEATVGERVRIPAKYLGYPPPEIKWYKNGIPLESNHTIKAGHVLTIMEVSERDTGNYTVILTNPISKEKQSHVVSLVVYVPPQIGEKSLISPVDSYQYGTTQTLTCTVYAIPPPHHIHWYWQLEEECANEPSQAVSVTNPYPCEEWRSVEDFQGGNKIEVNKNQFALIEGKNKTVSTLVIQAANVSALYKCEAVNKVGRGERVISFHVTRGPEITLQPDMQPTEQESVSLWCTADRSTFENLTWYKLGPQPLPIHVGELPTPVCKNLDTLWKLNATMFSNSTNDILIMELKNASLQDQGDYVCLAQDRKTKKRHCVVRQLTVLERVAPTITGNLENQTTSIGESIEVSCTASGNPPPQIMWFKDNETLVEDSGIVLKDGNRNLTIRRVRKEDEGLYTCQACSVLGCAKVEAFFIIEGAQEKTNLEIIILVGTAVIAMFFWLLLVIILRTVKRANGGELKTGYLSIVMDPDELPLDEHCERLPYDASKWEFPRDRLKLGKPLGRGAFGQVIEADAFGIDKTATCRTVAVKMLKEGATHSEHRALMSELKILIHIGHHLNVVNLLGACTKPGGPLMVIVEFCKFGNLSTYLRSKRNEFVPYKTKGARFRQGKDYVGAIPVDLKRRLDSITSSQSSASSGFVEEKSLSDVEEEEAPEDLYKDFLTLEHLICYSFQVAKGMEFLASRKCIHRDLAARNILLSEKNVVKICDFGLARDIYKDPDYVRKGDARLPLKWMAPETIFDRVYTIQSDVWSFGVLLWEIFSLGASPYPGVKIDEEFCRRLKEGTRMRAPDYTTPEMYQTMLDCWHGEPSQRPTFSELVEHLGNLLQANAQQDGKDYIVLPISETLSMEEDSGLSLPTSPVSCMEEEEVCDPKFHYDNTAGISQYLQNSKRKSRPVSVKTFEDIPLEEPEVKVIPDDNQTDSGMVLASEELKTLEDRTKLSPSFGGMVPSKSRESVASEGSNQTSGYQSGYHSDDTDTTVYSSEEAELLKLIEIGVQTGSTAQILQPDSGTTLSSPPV
# Platelet-derived growth factor receptor beta, sequence (P09619 whole entry, the tested form may be a part): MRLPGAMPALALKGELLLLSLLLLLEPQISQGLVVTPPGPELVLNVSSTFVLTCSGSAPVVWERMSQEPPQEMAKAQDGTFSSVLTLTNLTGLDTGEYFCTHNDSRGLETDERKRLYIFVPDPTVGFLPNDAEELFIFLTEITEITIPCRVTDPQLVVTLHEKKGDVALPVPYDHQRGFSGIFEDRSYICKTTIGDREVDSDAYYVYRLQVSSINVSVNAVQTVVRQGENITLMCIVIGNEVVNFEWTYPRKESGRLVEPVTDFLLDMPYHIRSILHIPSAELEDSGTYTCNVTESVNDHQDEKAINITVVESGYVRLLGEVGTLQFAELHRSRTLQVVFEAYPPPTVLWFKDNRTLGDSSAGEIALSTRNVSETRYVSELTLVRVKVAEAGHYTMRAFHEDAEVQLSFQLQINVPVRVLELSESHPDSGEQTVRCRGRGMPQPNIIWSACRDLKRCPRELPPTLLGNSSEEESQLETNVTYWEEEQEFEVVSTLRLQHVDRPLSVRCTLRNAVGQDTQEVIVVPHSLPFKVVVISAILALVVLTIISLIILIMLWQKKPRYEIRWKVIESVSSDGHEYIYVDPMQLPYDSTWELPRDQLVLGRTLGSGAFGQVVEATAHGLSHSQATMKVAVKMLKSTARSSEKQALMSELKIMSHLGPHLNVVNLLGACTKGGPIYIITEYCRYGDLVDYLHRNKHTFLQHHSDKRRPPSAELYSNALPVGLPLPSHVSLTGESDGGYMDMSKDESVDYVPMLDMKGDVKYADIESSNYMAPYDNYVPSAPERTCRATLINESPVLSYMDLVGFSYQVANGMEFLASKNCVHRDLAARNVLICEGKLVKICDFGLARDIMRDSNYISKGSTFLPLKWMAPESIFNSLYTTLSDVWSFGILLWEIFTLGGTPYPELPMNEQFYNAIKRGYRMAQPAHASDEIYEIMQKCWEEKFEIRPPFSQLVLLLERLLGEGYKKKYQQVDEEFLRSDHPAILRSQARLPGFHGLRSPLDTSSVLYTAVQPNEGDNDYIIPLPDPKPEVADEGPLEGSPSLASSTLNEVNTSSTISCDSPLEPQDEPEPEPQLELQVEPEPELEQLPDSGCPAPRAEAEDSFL
SMILES,pIC50 [1],pIC50 (HUVEC),half-life [5] [h],other results
C=C1C(=O)O[C@H]2C[C@H](C)C(/C=C/C(C)=O)=CC[C@H]12,6.42,,,
COc1cc2c(Oc3ccc4[nH]c(C)cc4c3F)ccnc2cc1OCC1(N)CC1 [CATEQUENTINIB],> 9.00,,,pIC50 [2]: 9.70; pIC50 [3]: 6.94
CNC(=O)c1cc(Oc2ccc(NC(=O)Nc3ccc(Cl)c(C(F)(F)F)c3)c(F)c2)ccn1 [REGORAFENIB],,,,pIC50 [4]: 7.66
CCN(CC)CCNC(=O)c1c(C)[nH]c(/C=C2\C(=O)Nc3ccc(F)cc32)c1C [SUNITINIB],,7.92,> 40,
Cc1[nH]c(/C=C2\C(=O)Nc3ccc(F)cc32)c(C)c1C(=O)N[C@H]1CCN(C(=O)N(C)C)C1 [VOROLANIB],,7.50,6.5,
